Test results as given in paper PMC6317416, “Thermophilic phosphoribosyltransferases Thermus thermophilus HB27 in nucleotide synthesis” (Beilstein Journal of Organic Chemistry, 2018).

System: T1, TthHPRT (hypoxanthine phosphoribosyltransferase Thermus thermophilus HB27)
T1 construct: gene hpt; C-terminal His-tag (pET-23a+), E. coli C3030
Experiment: HPLC product quantification, initial rate, nonlinear regression
Assay type: biochemical
Conditions: 5 mM MgCl2, 20 mM Tris-HCl pH 8.0, 70 °C
Description: HPLC product quantification, initial rate, nonlinear regression on TthHPRT (hypoxanthine phosphoribosyltransferase Thermus thermophilus HB27)

| Compound | Km (1 mM PRPP) [µM] | Km (0.50 mM hypoxanthine) [µM] |
| --- | --- | --- |
| O=c1[nH]cnc2nc[nH]c12 [hypoxanthine] | 13 ± 4 | – |
| O=P(O)(O)OC[C@H]1O[C@H](OP(=O)(O)OP(=O)(O)O)[C@H](O)[C@@H]1O [PRPP] | – | 220 ± 60 |
| Nc1nc2[nH]cnc2c(=O)[nH]1 [guanine] | 28 ± 9 | – |
